Patent US20240409584A1, “PEPTIDE HAVING ANTI-AGING ACTIVITY, AND USE THEREOF” (CAREGEN CO., LTD., priority 2021, published 2024)

Assays:
Col1a1 = Col1a1 (collagen) gene expression in fibroblasts, RT-PCR; assay type: cell-based, mouse; details: NIH3T3 cells, peptide 10, 50, 100 μM, 24 hours, serum free DMEM; FIGS. 1A, 1B
Experimental: (§1) First, NIH3T3 cells (mouse fibroblast cell line) were seeded in a 6-well plate at a cell density of 3×10^5 cell/well, and then the cells were cultured in DMEM medium containing 10% fetal bovine serum (FBS) for 24 hours. The cultured cells were washed once with serum free DMEM medium, and the peptide of the present invention was mixed in 1 mL of the serum free DMEM medium at each of concentrations of 10, 50, and 100 μM, and dispensed into the cells. A positive control (PC) was treated with 5 ng/ml of TGF-B instead of the above peptide. The cells were cultured in a CO: incubator at 37° C. for 24 hours.
(§2) The cultured cells were washed twice with PBS, and RNA was extracted from the cells using easy blue (iNtRON, Cat. No.: 17061, Korea). The amount of RNA extracted was quantified, 1, 000 ng of RNA was added per tube, and RT reaction was performed using a kit (enzynomics, Cat. No.: PT200, Korea). RT-PCR was performed using a PCR kit (enzynomics, Cat. No.: P581T, Korea). The sequences of the primers of collagen, fibronectin, and elastin used in RT-PCR and the sequence of the primer of GAPDH used to compare the total RNA amount of each treatment group are shown in [Table 2].

fibronectin [1] = experiment: Fibronectin gene expression in fibroblasts, RT-PCR; assay type: cell-based, mouse; details: NIH3T3 cells, peptide 10, 50, 100 μM, 24 hours, serum free DMEM; FIGS. 1A, 1C
Experimental: as §1, §2

elastin = experiment: Elastin gene expression in fibroblasts, RT-PCR; assay type: cell-based, mouse; details: NIH3T3 cells, peptide 10, 50, 100 μM, 24 hours, serum free DMEM; FIGS. 1A, 1D
Experimental: as §1, §2

AQP3 = AQP3 gene expression in keratinocytes, RT-PCR; assay type: cell-based; details: HaCaT cells, peptide 10, 50, 100 μM, 24 hours; FIGS. 2A, 2B
Experimental: (§3) First, HaCaT cells were seeded in a 6-well plate at a cell density of 3×10^5 cell/well, and then the cells were cultured in DMEM medium containing 10% fetal bovine serum (FBS) for 24 hours. The cultured cells were washed once with serum free DMEM medium, and then the peptide of the present invention was mixed in 1 mL of the serum free DMEM medium at each of concentrations of 10, 50, and 100 μM, and dispensed into the cells. A positive control (PC) was treated with 100 nM of EGF instead of the above peptide. The cells were cultured in a CO: incubator at 37° C. for 24 hours.
(§4) The cultured cells were washed twice with PBS, and then RNA was extracted from the cells using easy blue (iNtRON, Cat. No.: 17061, Korea). The extracted RNA was subjected to RT reaction using a kit (enzynomics, Cat. No.: RT200, Korea). Thereafter, RT-PCR was performed using a PCR kit (enzynomics, Cat. No.: R581T, Korea). The sequences of the primers of AQP3 and SIRT1 used in RT-PCR and the sequence of the primer of GAPDH used to compare the total RNA amount of each treatment group are shown in [Table 2].

SIRT1 = SIRT1 gene expression in keratinocytes, RT-PCR; assay type: cell-based; details: HaCaT cells, peptide 10, 50, 100 μM, 24 hours; FIGS. 2A, 2C
Experimental: as §3, §4

NIH3T3 cells = experiment: Intracellular ROS increased by UVA irradiation, DCFH-DA/FACS; assay type: cell-based, mouse; details: 8 J/cm^2 UVA, peptide 10, 50, 100 μM, 24 hours after irradiation, FIG. 3A
Experimental: as §3, with “First, NIH3T3 cells and” for “First,”, “5×10^5” for “3×10^5”, “cell/well, respectively,” for “cell/well,”, “50 μM” for “100 nM”, “Trolox” for “EGF”, “peptide.” for “peptide. The cells were cultured in a CO: incubator at 37° C. for 24 hours.”
(§5) The cells were cultured in a CO2 incubator at 37° C. for 1 hour. The medium of the cultured cells was transferred to a tube, 1 ml of PBS was added, and then the NIH3T3 cells were irradiated with 8 J/cm^2 of UVA and the HaCaT cells were irradiated with 15 mJ/cm^2 of UVB using a UV irradiator (VILBER LOURMAT, Cat No.: 3102-BSU, France). After removing PBS, 900 μL of the medium transferred to the tube was dispensed, and culture was performed in a CO2 incubator at 37° C. for 24 hours. After treatment with 10 μM of dichloro-dihydro-fluorescein diacetate (DCFH-DA), wrapping with a foil was performed, and culture was performed in a CO2 incubator at 37° C. for 30 minutes. […] After centrifugation, the cells were washed with PBS, and a fluorescence value was measured through FACS.

HaCaT cells = experiment: Intracellular ROS increased by UVB irradiation, DCFH-DA/FACS; assay type: cell-based; details: 15 mJ/cm^2 UVB, peptide 10, 50, 100 μM, 24 hours after irradiation, FIG. 3B
Experimental: as §3, with “First, NIH3T3 cells and” for “First,”, “5×10^5” for “3×10^5”, “cell/well, respectively,” for “cell/well,”, “50 μM” for “100 nM”, “Trolox” for “EGF”, “peptide.” for “peptide. The cells were cultured in a CO: incubator at 37° C. for 24 hours.”
as §5

Colla1 = experiment: Col1a1 gene expression decreased by UV in fibroblasts, RT-PCR; assay type: cell-based, mouse; details: NIH3T3 cells, 6 J/cm^2 UVA, peptide 10, 50, 100 μM, 6 hours after irradiation; FIGS. 4A, 4B
Experimental: (§6) First, NIH3T3 cells were seeded in a 6-well plate at a cell density of 5×10^5 cell/well, and then the cells were cultured in DMEM medium containing 10% fetal bovine serum (FBS) for 24 hours. The cultured cells were washed once with serum free DMEM medium, and then the peptide of the present invention was mixed in 1 mL of the serum free DMEM medium at each of concentrations of 10, 50, and 100 μM, and dispensed into the cells. A positive control (PC) was treated with 2.5 mM of N-acetylcysteine or 50 μM of Trolox instead of the above peptide. The cells were cultured in a CO: incubator at 37° C. for 1 hour.
(§7) The medium of the cultured cells was transferred to a tube (e-tube), 1 ml of PBS was added, and irradiation was performed with 6 J/cm^2 of UVA using a UV irradiator (VILBER LOURMAT, Cat No.: 3102-BSU, France). After removing PBS, 900 μL of the medium transferred to the tube was dispensed, and culture was performed in a CO2 incubator at 37° C. for 6 hours. The cultured cells were washed twice with PBS, and then RNA was extracted from the cells using easy blue (iNtRON, Cat. No.: 17061, Korea). The amount of RNA extracted was quantified, 1,000 ng of RNA was added per tube, and RT reaction was performed using a kit (enzynomics, Cat. No.: RT200, Korea). Thereafter, RT-PCR was performed using a PCR kit (enzynomics, Cat. No.: R581T, Korea). […]

fibronectin [2] = experiment: Fibronectin gene expression decreased by UV in fibroblasts, RT-PCR; assay type: cell-based, mouse; details: NIH3T3 cells, 6 J/cm^2 UVA, peptide 10, 50, 100 μM, 6 hours after irradiation; FIGS. 4A, 4C
Experimental: as §6, §7

MMP-1 [3] = experiment: MMP-1 expression increased by UV in fibroblasts, western blot; assay type: cell-based, mouse; details: NIH3T3 cells, 6 J/cm^2 UVA, peptide 10, 50, 100 μM, 24 hours after irradiation; FIG. 5A
Experimental: (§8) First, NIH3T3 cells and HaCaT cells were seeded in a 6-well plate at a cell density of 5×10^5 cell/well, respectively, and then the cells were cultured in DMEM medium containing 10% fetal bovine serum (FBS) for 24 hours. The cultured cells were washed once with serum free DMEM medium, and the peptide of the present invention was mixed in 1 mL of the serum free DMEM medium at each of concentrations of 10, 50, and 100 μM, and dispensed into the cells. A positive control (PC) was treated with 25 and 50 µM of Trolox instead of the above peptide.
(§9) The cells were cultured in a CO2 incubator at 37° C. for 1 hour. The medium of the cultured cells was transferred to a tube (e-tube), 1 ml of PBS was added, and then the NIH3T3 cells were irradiated with 6 J/cm^2 of UVA and the HaCaT cells were irradiated with 15 mJ/cm^2 of UVB using a UV irradiator (VILBER LOURMAT, Cat No.: 3102-BSU, France). After removing PBS, 900 μL of the medium transferred to the tube was added, and culture was performed in a CO2 incubator at 37° C. for 24 hours. The medium of the cultured cells was transferred to a tube, the cells were washed twice with PBS, and then a cell lysis buffer was added to lyse the cells. A sample was prepared by treating the cells with 5× sample buffer, and then SDS-PAGE was performed using 10% SDS-PAGE gel. The proteins isolated through SDS-PAGE were transferred to a PVDF membrane. […]

MMP-1 [4] = experiment: MMP-1 expression increased by UV in keratinocytes, western blot; assay type: cell-based; details: HaCaT cells, 15 mJ/cm^2 UVB, peptide 10, 50, 100 μM, 24 hours after irradiation; FIG. 5B
Experimental: as §8, §9

MMP-2 = MMP-2 activity increased by UV in fibroblasts, gelatin zymography; assay type: cell-based, mouse; details: fibroblasts (NIH3T3), 6 J/cm^2 UVA, peptide 10, 50, 100 μM, 6 hours after irradiation; FIG. 6A
MMP-9 = MMP-9 activity increased by UV in keratinocytes, gelatin zymography; assay type: cell-based; details: keratinocytes (HaCaT), 15 mJ/cm^2 UVB, peptide 10, 50, 100 μM, 6 hours after irradiation; FIG. 6B

DSSPLRSPSYAS [SEQ ID NO: 1]
expression of the collagen gene (Col1a1): gradually increased as a concentration of the peptide increased
expression of the fibronectin gene (fibronectin [1]): gradually increased as a concentration of the peptide increased
expression of the elastin gene (elastin): gradually increased as a concentration of the peptide increased
mRNA level of AQP3 (AQP3): increased
mRNA level of SIRT1 (SIRT1): increased
intracellular reactive oxygen species level increased by UV irradiation (NIH3T3 cells): decreased
intracellular reactive oxygen species level increased by UV irradiation (HaCaT cells): decreased
mRNA level of Colla1 decreased by UV irradiation (Colla1): increased again
mRNA level of fibronectin decreased by UV irradiation (fibronectin [2]): increased again
expression of MMP-1 increased by UV irradiation (MMP-1 [3]): inhibited
expression of MMP-1 increased by UV irradiation (MMP-1 [4]): inhibited
activity of MMP-2 protein increased by ultraviolet rays (MMP-2): inhibited
activity of MMP-9 protein increased by ultraviolet rays (MMP-9): inhibited
